Reference: patent publication US9234050B2, “Chitosan derivatives to treat animals or optimize animal health” (priority 2008, dated 2016)
Like-named read-outs stand apart in the source and are kept apart here. Where a SMILES comes first, the peptide text is derived from it. Bridges are numbered along the chain shown (N, C = ends). [ ]: non-standard residue; d: D form. The star is where a group is joined. Ileψ(thiazoline)Cys = CC[C@H](C)[C@H](N)C1=N[C@H](C(=O)*)CS1; dOrn = NCCC[C@@H](N)C(=O)O

What was measured:
[1] = test system: S. enterica (ATCC 700720)
[2] = test system: P. multocida (ATCC 11039); conditions: for Bacitracin (log reduction alone): BAC 32 μg/mL
[3] = test system: C. perfringens (ATCC 12919); format: cell-based
[4] = Poultry study in feed (weight gain); format: in vivo, chicks; conditions: dosage 55 mg/kg in feed; treated feed fed for 8 days
From the text: Various doses of two different functionalized chitosan-arginines were mixed in feed, both originally 84% degree of deacetylation. “10% functionalized” has a MW of 39 kDa, 12% functionalized, % DDA=82 and polydispersity index (PDI) of 1.5. “30% functionalized” has a MW of 27 kDa, 26% functionalized, % DDA=82 and polydispersity index (PDI) of 1.7. Dosing of feed may be irregular due to challenges in mixing extremely small quantities of material uniformly (sprayed on cornmeal from water solution, mixed with feedmeal). Twelve replicate pens of five chicks were used for each treatment. Treated feed was fed for 8 days, and weight gain and feed conversion were examined after 21 days (comparison with day 1). Awt21 is the average weight gain after 21 days and P Diff is the statistical P value between the measured and control.

## CC[C@H](C)[C@H](N)C1=N[C@H](C(=O)N[C@@H](CC(C)C)C(=O)N[C@H](CCC(=O)O)C(=O)N[C@H](C(=O)N[C@H]2CCCCNC(=O)[C@H](CC(N)=O)NC(=O)[C@@H](CC(=O)O)NC(=O)[C@H](Cc3cnc[nH]3)NC(=O)[C@@H](Cc3ccccc3)NC(=O)[C@H]([C@@H](C)CC)NC(=O)[C@@H](CCCN)NC2=O)[C@@H](C)CC)CS1 [Bacitracin] ({Ileψ(thiazoline)Cys}-L[dE]IK[dOrn]I[dF]H[dD]N; lactam 4-C)
[1]; Assay 1, BAC 4 μg/mL
  Bacitracin (log reduction alone): 0.08 log
[1]; Assay 1, BAC 8 μg/mL
  Bacitracin (log reduction alone): 0.08 log
[1]; Assay 2, BAC 2 μg/mL
  Bacitracin (log reduction alone): 0.2 log
[1]; Assay 2, BAC 4 μg/mL
  Bacitracin (log reduction alone): 0 log
[2]; Assay 1
  Bacitracin (log reduction alone): 0 log
[2]; Assay 2
  Bacitracin (log reduction alone): 0.2 log
[2]; P. multocida (ATCC 11039)
  bactericidal concentration: > 128 µg/mL

## CN(C)[C@@H]1C(O)=C(C(N)=O)C(=O)[C@@]2(O)C(O)=C3C(=O)c4c(O)cccc4[C@@](C)(O)[C@H]3C[C@@H]12 [Tetracycline]
[3]; Assay 1, TET 0.05 μg/mL
  Tetracycline (log reduction alone): 0.1 log
[3]; Assay 2, TET 0.2 μg/mL
  Tetracycline (log reduction alone): 0.1 log

## Penicillin
[4]
  Awt21 (average weight gain after 21 days): 0.852 kg
